Values after ≈ are worked out from the molar mass of the structure shown. Blank lines part the entries; values can stand above or below the molecule they belong to.
Tests used:
[1] = target: Non-receptor tyrosine-protein kinase TYK2 (Homo sapiens, UniProt P29597)
[2] = target: T1, Tyrosine-protein kinase JAK1 (Homo sapiens, UniProt P23458)
Description: Inhibition of human JAK1 using poly[Glu:Tyr] (4:1) as substrate in presence of 10 uM [gamma33P]ATP by radiometric method

[3] = Metabolic stability in mouse liver microsomes assessed as parent compound remaining at 100 uM after 180 mins in presence of NADPH regenerating system by LC-MS analysis; assay type: ADME, microsome; conditions: read-out: Stability
[4] = target: T2, Tyrosine-protein kinase JAK3 (Homo sapiens, UniProt P52333)
T2 sequence (P52333 whole entry): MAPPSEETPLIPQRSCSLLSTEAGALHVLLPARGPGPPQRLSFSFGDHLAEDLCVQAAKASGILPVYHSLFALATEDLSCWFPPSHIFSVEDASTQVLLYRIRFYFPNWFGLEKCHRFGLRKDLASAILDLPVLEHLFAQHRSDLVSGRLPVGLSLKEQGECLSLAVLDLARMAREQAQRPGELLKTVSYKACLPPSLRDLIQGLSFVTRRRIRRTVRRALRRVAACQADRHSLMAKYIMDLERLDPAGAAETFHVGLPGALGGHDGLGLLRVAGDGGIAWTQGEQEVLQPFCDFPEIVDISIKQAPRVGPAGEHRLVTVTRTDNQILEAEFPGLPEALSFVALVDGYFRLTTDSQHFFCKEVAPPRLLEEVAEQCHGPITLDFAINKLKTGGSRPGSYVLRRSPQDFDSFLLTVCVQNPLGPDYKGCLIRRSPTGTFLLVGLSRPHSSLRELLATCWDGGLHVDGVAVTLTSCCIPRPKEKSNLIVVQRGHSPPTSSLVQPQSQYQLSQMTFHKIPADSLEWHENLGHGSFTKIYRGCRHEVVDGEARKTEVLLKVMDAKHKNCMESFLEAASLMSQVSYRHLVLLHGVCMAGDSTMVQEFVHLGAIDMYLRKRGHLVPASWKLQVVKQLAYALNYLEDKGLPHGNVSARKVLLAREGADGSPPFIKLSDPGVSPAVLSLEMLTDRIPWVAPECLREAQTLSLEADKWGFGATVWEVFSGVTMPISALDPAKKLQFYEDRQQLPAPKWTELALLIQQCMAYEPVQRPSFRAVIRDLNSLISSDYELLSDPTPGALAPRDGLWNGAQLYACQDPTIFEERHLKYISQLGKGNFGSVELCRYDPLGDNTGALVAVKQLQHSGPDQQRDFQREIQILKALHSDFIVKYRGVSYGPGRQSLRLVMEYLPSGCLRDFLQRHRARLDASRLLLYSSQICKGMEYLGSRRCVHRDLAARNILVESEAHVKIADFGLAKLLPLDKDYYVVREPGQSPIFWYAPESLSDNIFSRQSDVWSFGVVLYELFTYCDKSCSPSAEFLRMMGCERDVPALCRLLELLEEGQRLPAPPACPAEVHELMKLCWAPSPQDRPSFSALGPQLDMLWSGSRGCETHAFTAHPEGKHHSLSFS
Description: Inhibition of kinase tracer-05 binding to C-terminal NanoLuc tagged full length JAK3 (unknown origin) expressed in HEK cells by NanoBRET assay

[5] = target: T2, Tyrosine-protein kinase JAK3; remark: listed apart in the source
Description: Inhibition of recombinant human JAK3 (781 to 1124 residues) expressed in baculovirus expression system assessed as reduction in polypeptide substrate phosphorylation in presence of ATP by ELISA

[6] = Metabolic stability in human whole blood assessed as parent compound remaining at 1 uM after 180 mins by LC-MS analysis; assay type: ADME, tissue-based; conditions: read-out: Stability
[7] = target: T2, Tyrosine-protein kinase JAK3; remark: listed apart in the source
[8] = Thiol reactivity in kinase assay buffer in presence of DTT; assay type: physicochemical
[9] = target: Tyrosine-protein kinase BTK (Homo sapiens, UniProt Q06187); assay: Inhibition of kinase tracer-05 binding to C-terminal NanoLuc tagged full length BTK (unknown origin) expressed in HEK cells by NanoBRET assay; assay type: cell-based
Tyrosine-protein kinase BTK, sequence (Q06187 whole entry): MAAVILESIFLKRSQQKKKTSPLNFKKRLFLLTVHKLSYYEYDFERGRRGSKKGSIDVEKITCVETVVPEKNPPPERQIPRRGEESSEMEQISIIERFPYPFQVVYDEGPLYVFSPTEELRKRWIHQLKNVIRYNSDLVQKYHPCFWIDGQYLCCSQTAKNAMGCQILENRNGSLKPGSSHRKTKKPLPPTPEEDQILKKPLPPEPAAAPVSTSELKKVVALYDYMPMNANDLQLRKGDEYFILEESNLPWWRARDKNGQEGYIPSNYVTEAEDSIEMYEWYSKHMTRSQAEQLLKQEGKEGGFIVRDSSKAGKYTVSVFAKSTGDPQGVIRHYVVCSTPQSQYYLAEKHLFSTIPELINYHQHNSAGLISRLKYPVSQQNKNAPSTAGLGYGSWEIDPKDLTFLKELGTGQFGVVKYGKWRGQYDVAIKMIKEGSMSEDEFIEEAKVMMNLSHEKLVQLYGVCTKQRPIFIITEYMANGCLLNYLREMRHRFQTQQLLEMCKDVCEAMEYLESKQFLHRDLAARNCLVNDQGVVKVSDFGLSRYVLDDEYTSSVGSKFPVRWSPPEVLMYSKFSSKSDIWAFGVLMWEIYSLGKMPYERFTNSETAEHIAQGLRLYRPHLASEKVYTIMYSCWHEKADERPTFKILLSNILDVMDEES

[10] = target: T1, Tyrosine-protein kinase JAK1; remark: listed apart in the source
Description: Inhibition of kinase tracer-04 binding to C-terminal NanoLuc tagged full length JAK1 (unknown origin) expressed in HEK cells by NanoBRET assay

[11] = target: T3, Tyrosine-protein kinase JAK2 (Homo sapiens, UniProt O60674); assay: Inhibition of kinase tracer-05 binding to C-terminal NanoLuc tagged full length JAK2 (unknown origin) expressed in HEK cells by NanoBRET assay; assay type: cell-based
T3 sequence (O60674 whole entry): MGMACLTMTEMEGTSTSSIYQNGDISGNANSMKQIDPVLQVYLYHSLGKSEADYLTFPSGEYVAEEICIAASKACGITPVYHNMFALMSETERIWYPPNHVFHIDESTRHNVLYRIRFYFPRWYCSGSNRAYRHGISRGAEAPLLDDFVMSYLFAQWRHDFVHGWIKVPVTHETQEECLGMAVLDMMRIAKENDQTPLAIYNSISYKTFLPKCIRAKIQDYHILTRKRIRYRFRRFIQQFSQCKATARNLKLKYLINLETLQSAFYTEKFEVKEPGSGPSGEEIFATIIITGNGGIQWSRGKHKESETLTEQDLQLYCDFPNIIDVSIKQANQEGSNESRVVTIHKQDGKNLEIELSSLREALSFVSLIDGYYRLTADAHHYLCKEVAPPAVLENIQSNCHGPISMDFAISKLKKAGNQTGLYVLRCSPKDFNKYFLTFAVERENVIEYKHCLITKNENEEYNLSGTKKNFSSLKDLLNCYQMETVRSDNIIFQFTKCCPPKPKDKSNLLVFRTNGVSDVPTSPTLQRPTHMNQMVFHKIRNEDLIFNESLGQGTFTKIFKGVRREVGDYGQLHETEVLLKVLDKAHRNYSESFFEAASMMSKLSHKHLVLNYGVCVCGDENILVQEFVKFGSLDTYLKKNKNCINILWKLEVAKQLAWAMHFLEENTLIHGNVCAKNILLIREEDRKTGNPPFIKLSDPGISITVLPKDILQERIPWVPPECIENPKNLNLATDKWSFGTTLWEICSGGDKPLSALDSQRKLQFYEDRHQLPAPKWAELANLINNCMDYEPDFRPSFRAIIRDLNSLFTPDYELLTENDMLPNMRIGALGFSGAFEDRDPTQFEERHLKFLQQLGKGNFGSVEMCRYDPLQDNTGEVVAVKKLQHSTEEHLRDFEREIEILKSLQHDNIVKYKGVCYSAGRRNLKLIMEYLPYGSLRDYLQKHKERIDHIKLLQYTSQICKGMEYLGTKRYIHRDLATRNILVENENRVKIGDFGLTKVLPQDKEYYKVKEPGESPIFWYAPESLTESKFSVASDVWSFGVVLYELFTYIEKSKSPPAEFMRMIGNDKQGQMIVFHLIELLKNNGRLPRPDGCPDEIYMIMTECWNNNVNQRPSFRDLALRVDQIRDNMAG

[12] = target: T3, Tyrosine-protein kinase JAK2
Description: Inhibition of human JAK2 using poly[Glu:Tyr] (4:1) as substrate in presence of 10 uM [gamma33P]ATP by radiometric method

[13] = Half life in human whole blood at 1 uM by LC-MS analysis; assay type: ADME, tissue-based
[14] = Aqueous solubility in pH 7.4 PBS buffer by HPLC analysis; assay type: physicochemical
[15] = Aqueous solubility in HEPES buffer; assay type: physicochemical

Non-receptor tyrosine-protein kinase TYK2, sequence (P29597 whole entry): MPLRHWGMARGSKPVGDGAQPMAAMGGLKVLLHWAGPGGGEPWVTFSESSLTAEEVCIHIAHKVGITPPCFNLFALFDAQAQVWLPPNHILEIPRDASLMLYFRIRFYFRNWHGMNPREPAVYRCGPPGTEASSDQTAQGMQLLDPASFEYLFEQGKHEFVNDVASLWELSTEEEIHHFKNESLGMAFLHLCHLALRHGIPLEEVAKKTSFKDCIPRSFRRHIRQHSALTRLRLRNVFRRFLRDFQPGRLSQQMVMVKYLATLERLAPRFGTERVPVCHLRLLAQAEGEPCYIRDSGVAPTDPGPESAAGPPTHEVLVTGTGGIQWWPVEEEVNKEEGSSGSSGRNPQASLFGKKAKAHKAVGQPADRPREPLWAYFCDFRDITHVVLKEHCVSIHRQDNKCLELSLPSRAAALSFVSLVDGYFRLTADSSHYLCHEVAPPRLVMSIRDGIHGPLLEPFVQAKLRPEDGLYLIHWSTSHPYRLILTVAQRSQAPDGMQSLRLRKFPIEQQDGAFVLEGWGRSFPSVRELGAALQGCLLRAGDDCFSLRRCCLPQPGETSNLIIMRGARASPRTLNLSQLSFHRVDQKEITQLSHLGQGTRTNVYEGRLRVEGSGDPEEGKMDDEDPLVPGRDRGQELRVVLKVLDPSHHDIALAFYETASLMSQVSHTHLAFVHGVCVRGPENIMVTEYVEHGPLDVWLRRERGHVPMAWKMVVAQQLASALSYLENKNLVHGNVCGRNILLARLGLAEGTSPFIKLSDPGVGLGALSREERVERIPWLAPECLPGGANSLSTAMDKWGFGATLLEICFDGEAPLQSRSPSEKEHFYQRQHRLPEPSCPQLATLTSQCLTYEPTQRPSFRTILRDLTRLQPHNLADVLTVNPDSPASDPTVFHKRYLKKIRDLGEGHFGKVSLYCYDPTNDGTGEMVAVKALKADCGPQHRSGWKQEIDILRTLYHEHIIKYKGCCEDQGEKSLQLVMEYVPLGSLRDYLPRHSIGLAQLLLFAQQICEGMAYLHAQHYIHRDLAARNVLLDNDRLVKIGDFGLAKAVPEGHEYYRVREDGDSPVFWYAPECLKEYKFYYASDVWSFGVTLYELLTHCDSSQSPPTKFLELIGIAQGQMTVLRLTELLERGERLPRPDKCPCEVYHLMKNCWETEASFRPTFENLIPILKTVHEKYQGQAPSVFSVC
T1 sequence (P23458 whole entry): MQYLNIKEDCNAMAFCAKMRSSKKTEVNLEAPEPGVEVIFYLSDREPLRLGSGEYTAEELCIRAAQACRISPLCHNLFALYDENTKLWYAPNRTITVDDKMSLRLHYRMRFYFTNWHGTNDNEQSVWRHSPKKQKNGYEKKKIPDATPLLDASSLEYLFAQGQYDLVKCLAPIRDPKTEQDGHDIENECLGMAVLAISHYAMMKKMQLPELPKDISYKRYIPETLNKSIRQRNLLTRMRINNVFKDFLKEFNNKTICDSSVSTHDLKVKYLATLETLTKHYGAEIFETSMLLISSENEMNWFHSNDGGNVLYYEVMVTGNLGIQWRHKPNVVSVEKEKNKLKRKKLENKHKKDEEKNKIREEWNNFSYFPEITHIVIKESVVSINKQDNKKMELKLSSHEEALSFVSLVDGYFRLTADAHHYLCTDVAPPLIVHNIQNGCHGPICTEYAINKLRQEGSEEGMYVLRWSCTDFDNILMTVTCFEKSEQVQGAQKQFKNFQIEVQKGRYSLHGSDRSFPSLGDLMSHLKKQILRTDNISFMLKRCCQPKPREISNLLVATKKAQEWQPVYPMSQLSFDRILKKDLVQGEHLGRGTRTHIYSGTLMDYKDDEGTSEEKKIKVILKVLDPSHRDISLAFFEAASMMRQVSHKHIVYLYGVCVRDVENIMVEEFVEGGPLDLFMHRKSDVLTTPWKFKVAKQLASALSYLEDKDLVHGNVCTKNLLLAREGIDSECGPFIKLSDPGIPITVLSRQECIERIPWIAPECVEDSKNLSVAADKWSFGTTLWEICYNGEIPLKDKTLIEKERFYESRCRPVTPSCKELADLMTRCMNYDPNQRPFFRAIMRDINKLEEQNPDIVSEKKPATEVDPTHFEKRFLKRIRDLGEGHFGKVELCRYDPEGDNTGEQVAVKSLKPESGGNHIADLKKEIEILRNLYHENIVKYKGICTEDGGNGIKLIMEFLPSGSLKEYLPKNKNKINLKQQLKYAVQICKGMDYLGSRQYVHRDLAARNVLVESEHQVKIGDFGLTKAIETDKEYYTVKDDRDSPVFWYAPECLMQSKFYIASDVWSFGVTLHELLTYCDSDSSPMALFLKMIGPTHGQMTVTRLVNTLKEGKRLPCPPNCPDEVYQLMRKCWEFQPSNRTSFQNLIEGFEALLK

SMILES: CC(C)(O)C(=O)N1CCN(c2ccc(C(F)(F)F)c(C3=C(c4c[nH]c5ccccc45)C(=O)NC3=O)c2)CC1
IC50 [1]: 2.11 µM
IC50 [2]: 0.344 µM

SMILES: N#CC(C#N)=Cc1ccc(-c2nc3cnc4[nH]ccc4c3n2C2CCCCC2)o1
remaining at 3 h, 100 µM [3]: 11%
EC50 [4]: 0.678 µM
IC50 [5]: 0.004 µM
remaining at 3 h, 1 µM [6]: 1.5%
IC50 [7]: 0.00039 µM
IC50 [1]: 0.014 µM
Drug metabolism [8]: Metabolite_Detected
EC50 [9]: 5.79 µM
EC50 [10]: 7.66 µM
IC50 [2]: 0.004 µM
EC50 [11]: 0.63 µM
IC50 [12]: 0.188 µM

SMILES: CN1CCN(C(=O)C(C#N)=Cc2ccc(-c3nc4cnc5[nH]ccc5c4n3C3CCCCC3)o2)CC1
remaining at 3 h, 100 µM [3]: 6.9%
EC50 [4]: 0.257 µM
IC50 [5]: 0.014 µM
remaining at 3 h, 1 µM [6]: 47%
IC50 [7]: 0.00074 µM
IC50 [1]: 0.791 µM
EC50 [9]: > 10 µM
half-life at 1 µM [13]: 3 h
solubility [14]: 248 µM (≈ 120 µg/mL)
EC50 [10]: > 10 µM
IC50 [2]: 0.117 µM
EC50 [11]: > 10 µM
IC50 [12]: 0.765 µM

SMILES: N#CC(C#N)=Cc1ccc(-c2nc3cnc4[nH]ccc4c3n2C2CCCCC2)cc1
IC50 [5]: 0.03 µM
Drug metabolism [8]: Metabolite_Detected

SMILES: N#C/C=C/c1ccc(-c2nc3cnc4[nH]ccc4c3n2C2CCCCC2)cc1
IC50 [5]: 0.39 µM

SMILES: N#CC(C#N)=Cc1cccc(-c2nc3cnc4[nH]ccc4c3n2C2CCCCC2)c1
IC50 [5]: 0.011 µM
Drug metabolism [8]: Metabolite_Detected

SMILES: NC(=O)CCc1ccc(-c2nc3cnc4[nH]ccc4c3n2C2CCCCC2)cc1
IC50 [5]: 0.499 µM

SMILES: NC(=O)/C=C/c1ccc(-c2nc3cnc4[nH]ccc4c3n2C2CCCCC2)cc1
IC50 [5]: > 1 µM
solubility [15]: Insoluble

SMILES: CNC(=O)C(C#N)=Cc1ccc(-c2nc3cnc4[nH]ccc4c3n2C2CCCCC2)o1
IC50 [5]: 0.023 µM

SMILES: N#CCCc1ccc(-c2nc3cnc4[nH]ccc4c3n2C2CCCCC2)cc1
IC50 [5]: 0.436 µM

SMILES: NC(=O)CCc1cccc(-c2nc3cnc4[nH]ccc4c3n2C2CCCCC2)c1
IC50 [5]: 0.49 µM

SMILES: CN(C)C(=O)C(C#N)=Cc1cccc(-c2nc3cnc4[nH]ccc4c3n2C2CCCCC2)c1
IC50 [5]: 0.205 µM

SMILES: N#C/C=C/c1cccc(-c2nc3cnc4[nH]ccc4c3n2C2CCCCC2)c1
IC50 [5]: 0.135 µM

SMILES: CN(C)C(=O)C(C#N)=Cc1ccc(-c2nc3cnc4c(ccn4C)c3n2C2CCCCC2)o1
IC50 [5]: > 10 µM

SMILES: N#CCCc1cccc(-c2nc3cnc4[nH]ccc4c3n2C2CCCCC2)c1
IC50 [5]: 0.505 µM

More lines, now with the values ahead:

IC50 [5]: 0.059 µM
SMILES: NC(=O)CCc1ccc(-c2nc3cnc4[nH]ccc4c3n2C2CCCCC2)o1

IC50 [5]: 0.181 µM
IC50 [7]: 0.048 µM
IC50 [1]: 0.139 µM
IC50 [2]: 0.045 µM
IC50 [12]: 0.183 µM
SMILES: CN(C)C(=O)CCc1ccc(-c2nc3cnc4[nH]ccc4c3n2C2CCCCC2)o1

IC50 [5]: 0.642 µM
SMILES: CN(C)C(=O)CCc1ccc(-c2nc3cnc4[nH]ccc4c3n2C2CCCCC2)cc1

IC50 [5]: 0.129 µM
IC50 [7]: 0.01 µM
IC50 [1]: 0.025 µM
IC50 [2]: 0.016 µM
IC50 [12]: 0.048 µM
SMILES: N#CCCc1ccc(-c2nc3cnc4[nH]ccc4c3n2C2CCCCC2)o1

remaining at 3 h, 100 µM [3]: 58%
remaining at 3 h, 1 µM [6]: 49.4%
EC50 [9]: > 10 µM
half-life at 1 µM [13]: 3 h
solubility [14]: 56 µM (≈ 24 µg/mL)
SMILES: CN(C)C(=O)C(C#N)=Cc1ccc(-c2nc3cnc4[nH]ccc4c3n2C2CCCCC2)o1

remaining at 3 h, 100 µM [3]: 53.9%
EC50 [4]: 0.74 µM
IC50 [5]: 0.027 µM
remaining at 3 h, 1 µM [6]: 98.8%
IC50 [7]: 0.00021 µM
IC50 [1]: 0.044 µM
EC50 [9]: 13.3 µM
EC50 [10]: > 10 µM
IC50 [2]: 0.012 µM
EC50 [11]: 7.71 µM
IC50 [12]: 0.053 µM
SMILES: N#C/C=C/c1ccc(-c2nc3cnc4[nH]ccc4c3n2C2CCCCC2)o1

IC50 [5]: 0.571 µM
SMILES: CN(C)C(=O)C(C#N)=Cc1ccc(-c2nc3cnc4[nH]ccc4c3n2C2CCCCC2)cc1

IC50 [5]: 0.368 µM
SMILES: CN(C)C(=O)C(C#N)=Cc1ccc(-c2nc3cnc4[nH]ccc4c3n2C)o1

IC50 [5]: 0.129 µM
SMILES: NC(=O)/C=C/c1ccc(-c2nc3cnc4[nH]ccc4c3n2C2CCCCC2)o1

IC50 [5]: 0.678 µM
SMILES: CN(C)C(=O)CCc1cccc(-c2nc3cnc4[nH]ccc4c3n2C2CCCCC2)c1

— ChEMBL document CHEMBL4118225, “Development, Optimization, and Structure-Activity Relationships of Covalent-Reversible JAK3 Inhibitors Based on a Tricyclic Imidazo[5,4- d]pyrrolo[2,3- b]pyridine Scaffold” (J Med Chem, 2018)
